Results taken from patent US9504754B2, “Curcuminoid complexes with enhanced stability, solubility and/or bioavailability” (South Dakota Board of Regents, priority 2013, dated 2016).

How the values were obtained:
[1] = without any solubility enhancement techniques; cited from earlier work
[2] = Aqueous solubility of curcumin at different pH (FIG. 6A/6B); format: physicochemical

- aqueous solubility of curcumin (colour of solution) ([2]; pH 1.2): absence of soluble curcumin
- aqueous solubility of curcumin (colour of solution) ([2]; pH 4.5): absence of soluble curcumin
- aqueous solubility of curcumin (colour of solution) ([2]; pH 7.0): absence of soluble curcumin
- aqueous solubility of curcumin (colour of solution) ([2]; pH 7.4): absence of soluble curcumin
SMILES: COc1cc(/C=C/C(=O)CC(=O)/C=C/c2ccc(O)c(OC)c2)ccc1O [free curcumin, (1E,6E)-1,7-bis(4-hydroxy-3-methoxyphenyl)-1,6-heptadiene-3,5-dione]
- solubility in water [1]: less than 1 μg/ml
